{
  "source": "patent US20040102485A1",
  "about": "“Tartrate salt of thiazolidinedione derivative” (priority 2003, published 2004)",
  "assay": "Solid state stability of the Meso-Tartrate (storage in glass bottle, HPLC assay for final content and degradation products)",
  "assay_type": "physicochemical",
  "conditions": "1 month",
  "protocol": "Solid State Stability of the Meso-Tartrate, recorded for the product of Example 1 The solid state stability of the drug substance was determined by storing approximately 1.0 g of the material in a glass bottle at i) 40° C./75% Relative Humidity (RH), open exposure, for 1 month and b) at 50° C., closed, for 1 month. The material was assayed by HPLC for final content and degradation products in both cases.",
  "key": {"[1]": {"conditions": "40° C./75% Relative Humidity (RH), open exposure"}},
  "data": [
    {"smiles": "CN(CCOc1ccc(CC2SC(=O)NC2=O)cc1)c1ccccn1.O=C(O)C(O)C(O)C(=O)O", "note": "(stereo not drawn) [Example 1, 5-[4-[2-(N-methyl-N-(2-pyridyl)amino)ethoxy]benzyl]thiazolidine-2,4-dione Meso-Tartrate]", "values": [
      {"measurement": "HPLC assay (final content)", "setting": "[1]", "result": 97, "unit": "% initial"},
      {"measurement": "degradation (HPLC, degradation products)", "setting": "[1]", "result": "No significant degradation observed"},
      {"measurement": "HPLC assay (final content)", "setting": "50° C., closed", "result": 98, "unit": "% initial"},
      {"measurement": "degradation (HPLC, degradation products)", "setting": "50° C., closed", "result": "No significant degradation observed"}
    ]}
  ]
}
